Data published in article PMC7355546, “Lignans, Amides, and Saponins from Haplophyllum tuberculatum and Their Antiprotozoal Activity” (Molecules, 2020).
Where “and” joins values, the source holds several entries; their conditions need not be identical. Equal values may be shown once. Read-outs that look alike come from different tables or passages of the source.

What was measured:
[1] = test system: P. falciparum; conditions: cited from earlier work
[2] = test system: T. b. rhodesiense (STIB 900) bloodstream forms; assay: Activity against Trypanosoma brucei rhodesiense bloodstream forms (resazurin); type: cell-based; conditions: for IC50: read-out: T. b. rhodesiense IC50; for activity against T. b. rhodesiense (in words): STIB 900; for T. b. rhodesiense SI (selectivity index): IC50 in L6 cells divided by IC50 in T. b. rhodesiense
Protocol: The stock was originally isolated from a patient and adapted to axenic culture conditions after several mouse passages and cloned. Minimum Essential Medium (50 µL) supplemented with 25 mM HEPES, 1 g/L additional glucose, 1% MEM non-essential amino acids (100×), 0.2 mM 2-mercaptoethanol, 1mM Na-pyruvate and 15% heat inactivated horse serum was added to each well of a 96-well microtiter plate. […] Then 4 × 10^3 bloodstream forms of T. b. rhodesiense STIB 900 in 50 µL were added to each well and the plate incubated at 37 °C under a 5% CO2 atmosphere for 70 h. […] Melarsoprol (Arsobal Sanofi-Aventis, received from WHO) was used as control.

[3] = test system: P. falciparum (NF54); assay: Activity against Plasmodium falciparum erythrocytic stages (3H-hypoxanthine incorporation); type: cell-based; conditions: for P. falciparum SI (selectivity index): IC50 in L6 cells divided by IC50 in P. falciparum
[4] = In vitro cytotoxicity with L-6 cells (resazurin); type: cell-based; conditions: unit inferred, the other IC50 columns are µM, read-out: L6 Cells (cytotoxicity IC50)
Protocol: Assays were performed in 96-well microtiter plates, each well containing 100 μL of RPMI 1640 medium supplemented with 1% L-glutamine (200 mM) and 10% fetal bovine serum, and 4000 L-6 cells (a primary cell line derived from rat skeletal myoblasts). […] 10 μL of resazurin was then added to each well and the plates incubated for another 2 h. […] Podophyllotoxin (Sigma P4405) was used as control.

[5] = test system: L. donovani promastigote form; set-up: method as in PMID 18688887; conditions: cited from earlier work
[6] = test system: L. donovani intracellular amastigotes in mouse peritoneal macrophages; assay: Activity against Leishmania donovani intramacrophage amastigotes; type: cell-based; conditions: tested up to 30 μM
Protocol: Mouse peritoneal macrophages (4 × 10^4 in 100 µL RPMI 1640 medium with 10% heat-inactivated FBS) were seeded into wells of a 96-well plate. After 24 h, 100 µL of 2 × 10^5 amastigote Leishmania donovani were added. The amastigotes were taken from an axenic amastigote culture grown at pH 5.4. The medium containing free amastigote forms was removed after 24 h and replaced with fresh medium. The washing step was repeated and afterwards the serial drug dilution was prepared with at least 6 dilution steps. Compound was dissolved in DMSO at 10 mg/mL and further diluted in medium. After incubation for 96 h at 37 °C under a 5% CO2 atmosphere, the medium was removed and cells were fixed by adding 50 µL 4% formaldehyde solution followed by a staining with a 5 µM DRAQ5 solution. Plates were imaged in ImageXpress XLS (MD) microscope using a 20× air objective (635 nm excitation: 690/50 emission). Nine images were collected per well. Automated image analysis was performed with a script developed on Meta Xpress Software (MD). Three outputs were provided for each well: (i) number of host cell nuclei; (ii) numbers of infected and non-infected host cells; (iii) number of parasite nuclei per infected host cell. The IC50 values were calculated based on the infection rate and the numbers of intracellular amastigotes. Miltefosine was used as control.

[7] = test system: trypanosomes; conditions: cited from earlier work
[8] = Trypanosoma brucei, STIB 900 bloodstream forms, mean of at least two independent replicates ± absolute deviation
[9] = Plasmodium falciparum, NF54, NF54, mean of at least two independent replicates ± absolute deviation, read-out: P. falciparum IC50
[10] = L-6 cells (rat skeletal myoblasts)
[11] = STIB 900 bloodstream forms, mean of at least two independent replicates ± absolute deviation
[12] = NF54, mean of at least two independent replicates ± absolute deviation, read-out: P. falciparum IC50

COc1cc2c(OC)c3c(c(-c4ccc5c(c4)OCO5)c2cc1OC)C(=O)OC3 [Justicidin A]
activity against P. falciparum (in words) [1]: active

Nc1nc(N)nc(Nc2ccc([As]3SCC(CO)S3)cc2)n1 (centres unmarked) [melarsoprol, reference compound]
IC50 ([2]; Trypanosoma brucei): 0.01 µM

COc1cc(CCC(=O)NCCc2ccc(O)cc2)ccc1O [Compound 5, dihydro-feruloyltyramine]
activity against T. b. rhodesiense (in words) [2]: least active
IC50 [2, 8]: 206 ± 66.7 µM
activity against P. falciparum (in words) ([3]; NF54): least active
IC50 [3, 9]: 159 µM
IC50 at 72 h [4, 10]: > 318 µM

COc1cc(/C=C/C(=O)NCCc2ccc(O)cc2)ccc1O [Compound 6, (E)-N-feruloyltyramine]
T. b. rhodesiense SI (selectivity index) [2]: 2.0
activity against T. b. rhodesiense (in words) [2]: least active
IC50 [2, 8]: 121 ± 36.9 µM
P. falciparum SI (selectivity index) [3]: 3.6
IC50 [3, 9]: 68.4 ± 3.8 µM
IC50 at 72 h ([4]; rat skeletal myoblasts): 247 ± 3.7 µM

CCOC(CNC(=O)/C=C/c1ccc(O)c(OC)c1)c1ccc(O)cc1 (centres unmarked) [Compound 9, 7′-ethoxy-feruloyltyramine]
T. b. rhodesiense SI (selectivity index) [2]: 2.9
IC50 [2, 8]: 72.7 ± 30.4 µM
P. falciparum SI (selectivity index) [3]: 6.8
IC50 [3, 9]: 30.4 ± 8 µM
IC50 at 72 h [4, 10]: 208 ± 21.6 µM

COc1cc(CC(C)C(CO)Cc2ccc(O)c(OC)c2)ccc1O (centres unmarked) [Compound 10, 3,3′-dimethoxy-4,4′-dihydroxylignan-9-ol]
T. b. rhodesiense SI (selectivity index) [2]: 5 and 4.6
IC50 [2, 11]: 27.5 ± 8.4 µM
IC50 [2, 8]: 28 µM
P. falciparum SI (selectivity index) [3]: 13.7
activity against P. falciparum (in words) ([3]; NF54): selectively active
IC50 [3, 12]: 9.3 ± 1.3 µM
IC50 [3, 9]: 9 to 9.5 µM
IC50 at 72 h [4, 10]: 128 ± 3.9 µM

COc1cc([C@H]2O[C@H](c3cc(OC)c(O)c(OC)c3)[C@@H](C)[C@@H]2C)cc(OC)c1O [Compound 3, fragransin B2]
T. b. rhodesiense SI (selectivity index) [2]: 3.6
IC50 [2, 8]: 47.5 ± 4.5 µM
P. falciparum SI (selectivity index) [3]: 4.7
IC50 [3, 9]: 36.1 ± 1 µM

COc1cc([C@@H]2c3cc4c(cc3[C@H](O)[C@H]3COC(=O)[C@H]23)OCO4)cc(OC)c1OC [podophyllotoxin, reference compound]
IC50 at 72 h ([4]; rat skeletal myoblasts): 0.03 µM

COc1cc([C@H]2O[C@@H](c3ccc(O)c(OC)c3)[C@H](C)[C@@H]2C)ccc1O [Compound 2, nectandrin B]
activity against L. donovani promastigotes (in words) [5]: inactive
T. b. rhodesiense SI (selectivity index) [2]: 2.4
IC50 [2, 8]: 48.3 ± 1.3 µM
IC50 ([6]; Leishmania donovani, Peritoneal macrophage, read-out: activity against L. donovani in the intracellular amastigote assay): > 30 µM
activity against L. donovani in the intracellular amastigote assay [6]: not reproduced
P. falciparum SI (selectivity index) [3]: 12.1
IC50 [3, 12]: 9.5 ± 0.1 µM
IC50 [3, 9]: 9 to 9.5 µM
IC50 at 72 h ([4]; rat skeletal myoblasts): 115 ± 2.6 µM

COc1cc(C(=O)/C(C)=C(/C)C(=O)c2ccc(O)c(OC)c2)ccc1O [Compound 7, furoguaiaoxidin]
IC50 [2, 8]: 114 µM
IC50 [3, 9]: 48.1 ± 10.9 µM
IC50 at 72 h [4, 10]: > 281 µM

COc1cc([C@H]2O[C@@H](c3ccc(O)c(OC)c3)[C@@H](C)[C@H]2C)ccc1O [Compound 1, tetrahydrofuroguaiacin B]
T. b. rhodesiense SI (selectivity index) [2]: 1.6
IC50 [2, 8]: 59.4 ± 2.5 µM
P. falciparum SI (selectivity index) [3]: 1.8
IC50 [3, 9]: 53.1 ± 2 µM
IC50 at 72 h ([4]; rat skeletal myoblasts): 95.2 ± 9.3 µM

CCN(CC)CCCC(C)Nc1ccnc2cc(Cl)ccc12 (centres unmarked) [chloroquine, reference compound]
IC50 ([3]; Plasmodium falciparum, NF54, read-out: P. falciparum IC50): 0.01 µM

COc1cc([C@H]2O[C@@H](c3cc(OC)c(O)c(OC)c3)[C@@H](C)[C@@H]2C)cc(OC)c1O [Compound 4, fragransin B1]
T. b. rhodesiense SI (selectivity index) [2]: 3.4
IC50 [2, 8]: 40.7 ± 0.4 µM
P. falciparum SI (selectivity index) [3]: 8.0
IC50 [3, 12]: 17.4 ± 2.1 µM
IC50 [3, 9]: 17 µM
IC50 at 72 h [4, 10]: 163 ± 4.5 µM

COc1cc(/C=C/C(=O)NCCCCNC(=O)/C=C/c2ccc(O)c(OC)c2)ccc1O [Compound 8, N,N′-diferuloylputrescine]
T. b. rhodesiense SI (selectivity index) [2]: 8 and 7.8
IC50 [2, 11]: 18.9 ± 8.4 µM
IC50 [2, 8]: 19 µM
P. falciparum SI (selectivity index) [3]: 4.8
IC50 [3, 9]: 30.6 ± 8.3 µM
IC50 at 72 h [4, 10]: 146 ± 18.8 µM

COc1cc2cc3c(c(-c4ccc5c(c4)OCO5)c2cc1OC)C(=O)CO3 [Justicidin B]
trypanocidal activity (in words) [7]: showed trypanocidal activity
